Assay results from patent US8178709B2, “Iron preparation suitable for pharmaceutical formulation and process for the preparation thereof” (BioLink Life Sciences, Inc., priority 2009, dated 2012).

Assays:
[1] = system: macrophages; conditions: ferric citrate-treated macrophages; cited from earlier work
[2] = biological target: human apotransferrin (Homo sapiens, UniProt P02787); assay: Iron binding to human apotransferrin (method of Bates, absorbance at 470 nm); conditions: Tris buffer with bicarbonate, pH 7.5, 25.0° C., FIG. 1
human apotransferrin, sequence (P02787 20-698): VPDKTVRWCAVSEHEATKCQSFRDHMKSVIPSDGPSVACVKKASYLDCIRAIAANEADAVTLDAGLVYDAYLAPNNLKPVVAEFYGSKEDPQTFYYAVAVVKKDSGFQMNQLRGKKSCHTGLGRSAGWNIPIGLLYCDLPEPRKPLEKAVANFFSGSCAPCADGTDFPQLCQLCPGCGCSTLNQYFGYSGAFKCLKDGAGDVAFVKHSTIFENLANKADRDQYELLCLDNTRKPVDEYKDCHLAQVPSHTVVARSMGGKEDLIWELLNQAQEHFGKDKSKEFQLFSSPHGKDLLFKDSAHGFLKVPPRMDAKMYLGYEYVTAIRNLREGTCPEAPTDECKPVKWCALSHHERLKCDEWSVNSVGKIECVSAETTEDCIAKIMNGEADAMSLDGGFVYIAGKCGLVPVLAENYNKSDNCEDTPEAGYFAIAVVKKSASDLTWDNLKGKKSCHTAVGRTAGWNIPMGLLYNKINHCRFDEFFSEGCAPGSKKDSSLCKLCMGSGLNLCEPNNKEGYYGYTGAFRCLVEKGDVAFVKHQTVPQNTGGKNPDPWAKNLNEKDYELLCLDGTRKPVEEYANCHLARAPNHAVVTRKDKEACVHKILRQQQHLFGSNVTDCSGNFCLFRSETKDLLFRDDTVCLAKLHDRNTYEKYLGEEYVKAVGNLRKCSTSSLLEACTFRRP
Excerpt: The major iron transport pool in human serum is iron bound to apotransferrin, an 80 kDa bilobal protein with two iron binding sites. The function of apotransferrin is: i) to bind iron and as transferrin (iron-laden apotransferrin) move iron from storage depots (ferritin) to various cell receptors; ii) to prevent iron from engaging in redox reactions which produce toxic free radicals; and iii) to prevent bacterial acquisition of this essential nutrient. Consequently, the best way to introduce iron into the normal metabolic pool is to deliver it to apotransferrin. […] Therefore, we measured the kinetics of Fe-transferrin formation from iron preparations of the invention and compared the kinetics to the kinetics of Fe-transferrin formation from commercial soluble ferric pyrophosphate and ferric sulfate-NTA complex at identical conditions according to the method of Bates, et al. [Bates, G. W., Billups, C. […]
The following test articles were evaluated in this study: Products 2-1 through 2-4 (described in Example 2); soluble ferric pyrophosphate (SFP), lot 112362 manufactured by The Dr. Paul Lohmann Chemical Company, Emmerthal, Germany (“Lohmann”); and ferric sulfate:NTA chelate.
Experimental Details. […] The binding of iron to apotransferrin was monitored at 470 nm, the absorption maximum for ferric transferrin. […]

Substance	Level of lipid peroxidation [1]	Phagocytic capacity [1]	Extent (efficiency) of iron uptake by human apotransferrin [2]
ferric citrate	significantly elevated	inhibited in a dose-related manner	–
ferric sulfate:NTA chelate [ferric sulfate-NTA chelate]	–	–	near quantitative efficiency
soluble ferric pyrophosphate	–	–	near quantitative efficiency
